Measured values reported in patent US8183001B2 (priority 2006, dated 2012).

Key:
Assay type in all cases: cell-based, C. elegans
M1 chimera = M1 chimera (Caenorhabditis elegans, UniProt G5ECD3+G5EE10); details: at EC50 GABA
Protocol: (§1) Electrophysiology: Plasmids containing wild-type and mutagenized GABAA receptor subunits were linearized and transcribed in vitro using T3 RNA polymerase (mMessage mMachine T3 kit, Ambion, Austin Tex.). UNC-49B mRNA was injected into Xenopus laevis oocytes at 0.5 μg/μl either alone, or in a mixture with 0.5 μg/μl UNC-49C. […] The injection volume ranged between 27.6 nl to 50.6 nl. […] Cells were voltage clamped at −60 mV. All recordings were performed at room temperature.

M1-R = M1-R (Caenorhabditis elegans, UniProt G5ECD3+G5EE10, N305R, form not given); details: at EC50 GABA
Protocol: as §1

N305R = N305R (Caenorhabditis elegans, UniProt G5ECD3, N305R); details: at EC50 GABA
Protocol: as §1

UNC-49B-PS7 = UNC-49B-PS7 (Caenorhabditis elegans, UniProt G5ECD3, I262F/I265S/M258L/N259Q/N305R/S264A/T257F); details: UNC-49B-PS7; at EC50 GABA
Protocol: as §1

X chimera = X chimera (Caenorhabditis elegans, UniProt G5ECD3, I262F/M258L/N259Q/N305R/S264A/T257F/V261F); details: at EC50 GABA
Protocol: as §1

X(I265S, Q259N) [1] = target: X(I265S, Q259N) (Caenorhabditis elegans, UniProt G5ECD3, I262F/I265S/M258L/N305R/S264A/T257F/V261F); details: X(I265S, Q259N); at EC50 GABA
Protocol: as §1

X(I265S, Q259N) [2] = details: residue 259 reverted to asparagine, versus X(I265S)
Protocol: as §1

X(I270L) = X(I270L) (Caenorhabditis elegans, UniProt G5ECD3, I262F/I270L/M258L/N259Q/N305R/S264A/T257F/V261F); details: at EC50 GABA
Protocol: as §1

X(V273I) = X(V273I) (Caenorhabditis elegans, UniProt G5ECD3, I262F/M258L/N259Q/N305R/S264A/T257F/V261F/V273I); details: at EC50 GABA
Protocol: as §1

XY chimera [3] = target: XY chimera (Caenorhabditis elegans, UniProt G5ECD3, I262F/I265S/I267V/I270L/M258L/N259Q/N305R/S264A/T257F/T269V/V261F/V273I); details: XY chimera; at EC50 GABA
Protocol: as §1

XY chimera [4] = details: XY chimera versus X chimera
Protocol: as §1

YZ chimera = YZ chimera (Caenorhabditis elegans, UniProt G5ECD3, A281S/E280D/I265S/I267V/I270L/L277I/N259Q/N305R/S282A/T269V/V261F/V273I); details: at EC50 GABA
Protocol: as §1

Z chimera = Z chimera (Caenorhabditis elegans, UniProt G5ECD3, A281S/E280D/L277I/N259Q/N305R/S282A/V261F); details: at EC50 GABA
Protocol: as §1

linker chimera = linker chimera (Caenorhabditis elegans, UniProt G5ECD3, N305R, form not given); details: at EC50 GABA
Protocol: as §1

M1-M2-linker chimera = M1-M2-linker chimera (Caenorhabditis elegans, UniProt G5ECD3+G5EE10); details: 5 μM PS, 100 μM GABA
Protocol: as §1
The strategy represents a deletion of UNC-49C material from the carboxy to amino terminal end of the transmembrane portion of the subunit, which is then replaced with UNC-49B sequences.

Y(M258L) = target: T1, Y(M258L) (Caenorhabditis elegans, UniProt G5ECD3, I265S/I267V/I270L/M258L/N259Q/N305R/T269V/V261F/V273I); details: M258L mutant; median of 1000 bootstrap trials
T1 sequence (G5ECD3 23-506 M258L/N259Q/V261F/I265S/I267V/T269V/I270L/V273I/N305R): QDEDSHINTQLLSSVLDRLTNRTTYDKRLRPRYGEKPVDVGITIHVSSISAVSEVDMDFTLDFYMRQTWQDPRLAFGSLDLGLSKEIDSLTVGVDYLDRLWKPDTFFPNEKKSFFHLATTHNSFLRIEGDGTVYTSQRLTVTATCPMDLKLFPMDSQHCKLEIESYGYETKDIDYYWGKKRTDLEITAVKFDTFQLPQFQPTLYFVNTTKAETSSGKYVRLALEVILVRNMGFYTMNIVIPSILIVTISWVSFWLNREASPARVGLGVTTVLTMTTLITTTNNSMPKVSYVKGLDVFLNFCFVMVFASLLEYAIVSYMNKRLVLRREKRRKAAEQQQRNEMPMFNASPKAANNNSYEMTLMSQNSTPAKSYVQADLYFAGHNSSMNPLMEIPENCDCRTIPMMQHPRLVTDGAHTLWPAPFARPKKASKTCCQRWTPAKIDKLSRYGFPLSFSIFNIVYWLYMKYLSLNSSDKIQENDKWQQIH
Protocol: as §1
(§2) Error bars in the figures are standard error of the mean. All drugs were obtained from Sigma (St. Louis). […] Picrotoxin was prepared as a 100 mM stock in DMSO.
(§3) Important residues in the X segment were tested by substituting UNC-49C residues into the Y chimera. […] These divergent X segment residues were tested by mutating them from UNC-49B to UNC-49C amino acids in the Y chimera background.

Y(M258L/S264A) = target: T2, Y(M258L/S264A) (Caenorhabditis elegans, UniProt G5ECD3, I265S/I267V/I270L/M258L/N259Q/N305R/S264A/T269V/V261F/V273I); details: M258L/S264A mutant; median of 1000 bootstrap trials
T2 sequence (G5ECD3 23-506 M258L/N259Q/V261F/S264A/I265S/I267V/T269V/I270L/V273I/N305R): T1 sequence (G5ECD3 23-506 M258L/N259Q/V261F/I265S/I267V/T269V/I270L/V273I/N305R)
Protocol: as §1, §2, §3

[5] = test system: UNC-49B homomers containing the M1 mutations; assay: Desensitization in oocytes; details: oocytes expressing UNC-49B homomers containing the M1 mutations

Chain of M1-M2-linker chimera (G5EE10 256-315, change not shown, one chain of several): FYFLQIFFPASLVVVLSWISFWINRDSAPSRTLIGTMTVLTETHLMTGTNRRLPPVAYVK
Chain of M1-R (G5ECD3 entry or part of it, stated change not applied): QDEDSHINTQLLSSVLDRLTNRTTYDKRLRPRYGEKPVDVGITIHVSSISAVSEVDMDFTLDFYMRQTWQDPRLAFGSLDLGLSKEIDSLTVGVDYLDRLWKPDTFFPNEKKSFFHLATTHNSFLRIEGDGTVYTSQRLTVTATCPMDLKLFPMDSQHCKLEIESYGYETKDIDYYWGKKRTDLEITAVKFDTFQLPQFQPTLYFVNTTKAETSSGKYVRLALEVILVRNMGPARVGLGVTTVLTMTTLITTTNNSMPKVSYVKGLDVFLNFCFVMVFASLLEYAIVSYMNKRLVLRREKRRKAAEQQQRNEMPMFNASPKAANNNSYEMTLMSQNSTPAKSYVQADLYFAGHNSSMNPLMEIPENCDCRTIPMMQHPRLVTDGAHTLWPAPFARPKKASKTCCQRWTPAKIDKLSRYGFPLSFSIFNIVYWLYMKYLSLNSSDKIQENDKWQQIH
Chain of M1-R (G5EE10 256-283, stated change not applied): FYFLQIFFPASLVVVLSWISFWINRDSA
Chain of M1 chimera (G5ECD3 entry or part of it, change not shown): as the sequence (G5ECD3 entry or part of it, stated change not applied) above

**Q.** How did the “PS Slope coefficient” value (M1 chimera) turn out when pregnenolone sulfate [PS] was run?
**A.** 0.9 ± 0.1 (n = 4)

**Q.** And the “PS Slope coefficient” value (M1-R)?
**A.** 1.2 ± 0.1 (n = 8)

**Q.** And the “PS Slope coefficient” value (N305R)?
**A.** 1.9 ± 0.2 (n = 4)

**Q.** And the “PS Slope coefficient” value (UNC-49B-PS7)?
**A.** 1.0 ± 0.0

**Q.** And the “PS Slope coefficient” value (X chimera)?
**A.** 1.0 ± 0.03

**Q.** What about the “PS Slope coefficient” value (X(I265S, Q259N) [1]) of the same substance?
**A.** 0.9 ± 0.0

**Q.** And the “fold reduction in PS sensitivity” value (X(I265S, Q259N) [2])?
**A.** 2.2 fold

**Q.** And the “PS Slope coefficient” value (X(I270L))?
**A.** 1.5 ± 0.1

**Q.** And the “PS Slope coefficient” value (X(V273I))?
**A.** 1.0 ± 0.02

**Q.** What about the “PS Slope coefficient” value (XY chimera [3]) of the same substance?
**A.** 1.6 ± 0.2

**Q.** And the “fold increase in PS sensitivity” value (XY chimera [4])?
**A.** 3.7 fold

**Q.** And the “PS Slope coefficient” value (YZ chimera)?
**A.** 3.5 ± 1.6

**Q.** What about the “PS Slope coefficient” value (Z chimera) of the same substance?
**A.** 1.05 ± 0.03

**Q.** What about the “PS Slope coefficient” value (linker chimera) of the same substance?
**A.** 1.3 ± 0.2 (n = 5)

**Q.** And the PS sensitivity (M1-M2-linker chimera)?
**A.** equally sensitive to 5 μM PS as the TM chimera

**Q.** And the “A, amplitude of normalized current above 1 (biphasic fit)” value (Y(M258L))?
**A.** 1.56

**Q.** And the “nE, slope coefficient for the enhancement” value (Y(M258L))?
**A.** 1.0

**Q.** And the “nI, slope coefficient for the inhibition” value (Y(M258L))?
**A.** 1.8

**Q.** And the “A, amplitude of normalized current above 1 (biphasic fit)” value (Y(M258L/S264A))?
**A.** 1.0

**Q.** What about the “nE, slope coefficient for the enhancement” value (Y(M258L/S264A)) of the same substance?
**A.** 1.3

**Q.** What about the “nI, slope coefficient for the inhibition” value (Y(M258L/S264A)) of the same substance?
**A.** 1 .9

**Q.** What about the “effect of PS on desensitization” value [5] of the same substance?
**A.** accelerated desensitization
